Test results as given in ChEMBL document CHEMBL4706476, “Novel Tetrahydropyrido[4,3-d]pyrimidines as Potent Inhibitors of Chaperone Heat Shock Protein 90” (J Med Chem, 2016).
≈ marks a conversion by molar mass, not a printed value. Calls of active or inactive are those of the source. No cut-off for these calls is given here.

Experiments:
Mus musculus [1] = test: In vivo inhibition of HSP90 in nude mouse xenografted with human HCT-116 cells assessed as decrease in Akt protein level in tumor at 40 to 60 mg/kg, ip administered every other day for 16 days and measured after 12 hrs post last dose by Western blot analysis; conditions: dose 40-60 mg/kg, time 16.0 day
[2] = target: T1, Heat shock protein HSP90 (Homo sapiens) (UniProt P07900+P08238); test: Inhibition of HSP90 in human HCT-116 cells assessed as reduction in AKT protein expression after 24 hrs by Western blot analysis; format: cell-based; conditions: dose 0.01-3 µM
Mus musculus [3] = test: In vivo inhibition of HSP90 in nude mouse xenografted with human HCT-116 cells assessed as decrease in Erk protein level in tumor at 40 to 60 mg/kg, ip administered every other day for 16 days and measured after 12 hrs post last dose by Western blot analysis; conditions: dose 40-60 mg/kg, time 16.0 day
HCT-116 [4] = test: Antitumor activity against human HCT-116 cells xenografted in nude mouse assessed as decrease in tumor cells at 40 to 60 mg/kg, ip administered every other day for 16 days by hematoxylin and eosin staining based assay; conditions: dose 40-60 mg/kg, time 16.0 day
[5] = target: T1, Heat shock protein HSP90 (Homo sapiens); test: Inhibition of HSP90 in human HCT-116 cells assessed as induction of HSP70 expression after 24 hrs by Western blot analysis; format: cell-based; conditions: dose 0.01-3 µM
Rattus norvegicus [6] = test: Ex vivo inhibition of HSP90 in Sprague-Dawley rat assessed as up regulation of HSP70 expression in retina at 20 mg/kg, iv administered for 2 consecutive days and measured 24 hrs post last dose by immunohistochemistry analysis; format: functional, organism-based; conditions: time 3.0 day
Mus musculus [7] = test: In vivo inhibition of HSP90 in nude mouse xenografted with human HCT-116 cells assessed as upregulation of HSP90 protein expression in tumor at 40 to 60 mg/kg, ip administered every other day for 16 days and measured after 12 hrs post last dose by Western blot analysis; conditions: dose 40-60 mg/kg, time 16.0 day
[8] = target: T1, Heat shock protein HSP90 (Homo sapiens); test: Inhibition of HSP90 in human HCT-116 cells assessed as reduction in phosphorylated Erk after 24 hrs by Western blot analysis; format: cell-based; conditions: dose 0.01-3 µM
Mus musculus [9] = test: In vivo inhibition of HSP90 in nude mouse xenografted with human HCT-116 cells assessed as upregulation of HSP70 protein expression in tumor at 40 to 60 mg/kg, ip administered every other day for 16 days and measured after 12 hrs post last dose by Western blot analysis; conditions: dose 40-60 mg/kg, time 16.0 day
[10] = Selectivity ratio of IC50 for inhibition of FITC-geldanamycin binding to N-terminal GRP94 (unknown origin) to IC50 for inhibition of FITC-geldanamycin binding to N-terminal HSP90alpha (unknown origin)
[11] = target: T1, Heat shock protein HSP90 (Homo sapiens); test: Inhibition of HSP90 in human HCT-116 cells assessed as reduction in Erk protein expression after 24 hrs by Western blot analysis; format: cell-based; conditions: dose 0.01-3 µM
Rattus norvegicus [12] = test: Ex vivo inhibition of HSP90 in Sprague-Dawley rat assessed as up regulation of HSP70 expression in retina at 20 mg/kg, iv administered for 2 consecutive days and measured 24 hrs post last dose by Western blot analysis; format: functional, organism-based; conditions: time 3.0 day
MV4-11 = test: Antiproliferative activity against human MV4-11 assessed as reduction in cell viability incubated for 72 hrs by MTT assay; format: functional, cell-based; conditions: MV4-11, 72 h
MCF7 = test: cells; conditions: Homo sapiens, MCF7, 72 h
A549 = test: Antiproliferative activity against human A549 assessed as reduction in cell viability incubated for 72 hrs by MTT assay; format: functional, cell-based; conditions: A549, 72 h
Endoplasmin = Endoplasmin (Homo sapiens, UniProt P14625); test: Displacement of FITC-geldanamycin from N-terminal GRP94 (unknown origin) after 30 mins by fluorescence polarization competitive binding assay
Endoplasmin, sequence (P14625 whole entry): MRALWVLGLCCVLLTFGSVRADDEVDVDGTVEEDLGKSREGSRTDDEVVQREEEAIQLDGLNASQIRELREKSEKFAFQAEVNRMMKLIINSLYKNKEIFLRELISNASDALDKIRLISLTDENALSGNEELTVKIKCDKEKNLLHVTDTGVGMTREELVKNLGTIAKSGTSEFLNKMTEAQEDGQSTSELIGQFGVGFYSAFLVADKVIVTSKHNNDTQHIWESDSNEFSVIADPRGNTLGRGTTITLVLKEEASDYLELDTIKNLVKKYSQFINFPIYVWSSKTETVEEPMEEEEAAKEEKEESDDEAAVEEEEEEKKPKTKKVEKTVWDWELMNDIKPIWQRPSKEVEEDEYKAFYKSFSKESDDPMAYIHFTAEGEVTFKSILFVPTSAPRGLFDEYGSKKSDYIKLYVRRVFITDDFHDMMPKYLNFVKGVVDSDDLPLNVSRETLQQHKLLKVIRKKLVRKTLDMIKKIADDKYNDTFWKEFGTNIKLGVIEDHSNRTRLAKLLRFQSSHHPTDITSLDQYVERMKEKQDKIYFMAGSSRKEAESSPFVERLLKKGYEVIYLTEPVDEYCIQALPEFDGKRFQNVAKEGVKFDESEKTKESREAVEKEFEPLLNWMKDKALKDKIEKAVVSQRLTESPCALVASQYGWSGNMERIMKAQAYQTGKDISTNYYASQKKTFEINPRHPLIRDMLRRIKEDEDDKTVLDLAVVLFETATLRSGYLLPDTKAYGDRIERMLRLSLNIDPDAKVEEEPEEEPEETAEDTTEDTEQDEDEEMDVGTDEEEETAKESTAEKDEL

T47D = test: Antiproliferative activity against human T47D assessed as reduction in cell viability incubated for 72 hrs by MTT assay; format: functional, cell-based
HepG2 = test: Antiproliferative activity against human HepG2 assessed as reduction in cell viability incubated for 72 hrs by MTT assay; format: functional, cell-based; conditions: HepG2, 72 h
K562 = test: Antiproliferative activity against human K562 assessed as reduction in cell viability incubated for 72 hrs by MTT assay; format: functional, cell-based; conditions: K562, 72 h
BT-474 = test: Antiproliferative activity against human BT-474 assessed as reduction in cell viability incubated for 72 hrs by MTT assay; format: functional, cell-based; conditions: BT-474, 72 h
HCT-116 [13] = test: Antitumor activity against human HCT-116 cells xenografted in nude mouse assessed as reduction in relative tumor volume by measuring T/C ratio at 60 mg/kg, ip administered every other day for 16 days and monitored every 3 days; format: functional; conditions: time 16 day
[14] = target: Heat shock protein HSP 90-alpha (Homo sapiens, UniProt P07900); test: Displacement of FITC-geldanamycin from N-terminal HSP90alpha (unknown origin) after 30 mins by fluorescence polarization competitive binding assay
MKN-28 = test: Antiproliferative activity against human MKN-28 assessed as reduction in cell viability incubated for 72 hrs by MTT assay; format: functional, cell-based; conditions: MKN-28, 72 h
SK-BR-3 = test: Antiproliferative activity against human SK-BR-3 assessed as reduction in cell viability incubated for 72 hrs by MTT assay; format: functional, cell-based; conditions: SK-BR-3, 72 h
L02 = test: Cytotoxicity against human L02 cells assessed as reduction in cell viability incubated for 72 hrs by MTT assay; format: cell-based; conditions: L02, 72 h
U2OS = test: Antiproliferative activity against human U2OS assessed as reduction in cell viability incubated for 72 hrs by MTT assay; format: functional, cell-based
MDA-MB-231 = test: Antiproliferative activity against human MDA-MB-231 assessed as reduction in cell viability incubated for 72 hrs by MTT assay; format: functional, cell-based; conditions: MDA-MB-231, 72 h
MDA-MB-468 = test: Antiproliferative activity against human MDA-MB-468 assessed as reduction in cell viability incubated for 72 hrs by MTT assay; format: functional, cell-based; conditions: MDA-MB-468, 72 h
HCT-116 [15] = test: cells; conditions: Homo sapiens, HCT-116, 72 h
Description: Antiproliferative activity against human HCT-116 cells assessed as reduction in cell viability incubated for 72 hrs by MTT assay

[16] = Permeability of the compound at pH 7.4 by PAMPA; format: ADME; conditions: read-out: permeability
[17] = Metabolic stability in human liver microsomes assessed as parent compound remaining at 1 uM preincubated for 5 mins followed by NADPH addition and measured up to 120 mins by LC-MS/MS analysis; format: ADME, Microsome; conditions: 2 h, time <=125 min
[18] = Half life in human liver microsomes at 1 uM preincubated for 5 mins followed by NADPH addition and measured up to 120 mins by LC-MS/MS analysis; format: ADME, Microsome; conditions: 2 h, time <=125 min
[19] = Intrinsic clearance in human liver microsomes at 1 uM preincubated for 5 mins followed by NADPH addition and measured up to 120 mins by LC-MS/MS analysis; format: ADME, Microsome; conditions: 2 h, time <=125 min
[20] = Distribution coefficient, logD of compound at pH 7.4; format: physicochemical; conditions: octanol/water
[21] = Intrinsic aqueous solubility of the compound; format: physicochemical
HCT-116 [22] = test: Antitumor activity against human HCT-116 cells xenografted in nude mouse assessed as reduction in relative tumor volume by measuring T/C ratio at 40 mg/kg, ip administered every other day for 16 days and monitored every 3 days; format: functional; conditions: time 16 day
[23] = Apparent volume of distribution in rat at 50 mg/kg, po measured upto 24 hrs by LC-MS/MS analysis; format: ADME, organism-based; conditions: in vivo
[24] = Apparent volume of distribution in rat at 10 mg/kg, iv measured upto 24 hrs by LC-MS/MS analysis; format: ADME, organism-based; conditions: in vivo, read-out: Vz
[25] = Toxicity in nude mouse xenografted with human HCT-116 cells assessed as change in body weight at 40 to 60 mg/kg, ip administered every other day for 16 days and monitored every 3 days; conditions: in vivo, 384 h

Compound | inhibition [2] | inhibition [5] | inhibition [8] | Ratio IC50 [10] | inhibition [11] | IC50 (MV4-11) | IC50 (MCF7) | IC50 (A549) | IC50 (Endoplasmin) | IC50 (T47D) | IC50 (HepG2) | IC50 (K562) | IC50 (BT-474) | T/C (HCT-116 [13]) | IC50 [14] | IC50 (MKN-28) | IC50 (SK-BR-3) | IC50 (L02) | IC50 (U2OS) | IC50 (MDA-MB-231) | other results
CCNc1nc(OCCOC)nc2c1CN(C(=O)c1cc(C(C)C)c(O)cc1O)CC2 | Dose-dependent effect | Dose-dependent effect | Dose-dependent effect | 26 | Dose-dependent effect | – | – | – | – | – | – | – | – | – | – | – | – | – | – | – | inhibition (Mus musculus [1]): Active; inhibition (Mus musculus [3]): Active; Activity (HCT-116 [4]): Active; inhibition (Rattus norvegicus [6]): inactive; inhibition (Mus musculus [7]): Active; inhibition (Mus musculus [9]): Active; inhibition (Rattus norvegicus [12]): inactive
CC(C)c1cc(C(=O)N2Cc3ccc(CN4CCN(C)CC4)cc3C2)c(O)cc1O [ONALESPIB] | – | – | – | 1.7 | – | 11 nM | 20 nM | 50 nM | 22 nM | 24 nM | 18 nM | 38 nM | 32 nM | 21% | 13 nM | 129 nM | 71 nM | 11600 nM | 67 nM | 38 nM | IC50 (MDA-MB-468): 66 nM; IC50 (HCT-116 [15]): 70 nM; Papp [16]: 74.3 ×10⁻⁶ cm/s
CCCOc1nc(OCCOC)nc2c1CN(C(=O)c1cc(C(C)C)c(O)cc1O)CC2 | Dose-dependent effect | Dose-dependent effect | Dose-dependent effect | 25.8 | Dose-dependent effect | 18 nM | 40 nM | 60 nM | 929 nM | 178 nM | 222 nM | 150 nM | 118 nM | – | 36 nM | 407 nM | 220 nM | 30900 nM | 171 nM | 122 nM | Stabilty [17]: 59.5%; t1/2 [18]: 1.15 h; CLint [19]: 13.7 mL/min/kg; logD [20]: 3.59; IC50 (MDA-MB-468): 139 nM; IC50 (HCT-116 [15]): 120 nM; solubility [21]: 73.6 µg/mL (≈ 165 µM); Papp [16]: 87.7 ×10⁻⁶ cm/s
CCNc1nc(OCCOC)nc2c1CN(C(=O)c1cc(C(C)C)c(O)cc1O)CC2.Cl | – | – | – | – | – | – | – | – | – | – | – | – | – | 23% | – | – | – | – | – | – | T/C (HCT-116 [22]): 45%; Vz [23]: 1620.19 L/kg; Vd [24]: 29.6 L/kg; Activity [25]: Non-Toxic
